# Results from patent US20120165325A1, “Stable forms of N-(2,6-Dimethyl-4-morpholin-4-yl-phenyl)-3,3-dimethyl-butyramide” (H. Lundbeck A/S, priority 2009, published 2012).
# Legend:
# Male Wistar rats = test: Conditioned avoidance response; format: in vivo, rat; conditions: for % inhibition of avoidance (Std. dev.) Relative to baseline: rats
# Description: Subjects. Male Wistar rats (Taconic, Denmark) weighing 150 g at the beginning of the study were used. The rats were housed in pairs and maintained on a 12 h light/dark cycle (lights on 06:00). The animals were fed once daily (approx. 6 pellets/rat) in order to keep the rats at 80% of their free-feeding weight. Water was available ad libitum. Temperature (21±1° C.) and relative humidity (55±5%) were automatically controlled.
# Experimental procedure. Conditioned avoidance testing was conducted using four automated shuttle-boxes (ENV-010M, MED-Associates) each placed in a sound-attenuated chamber. Each box was divided into two compartments by a partition with an opening. The position of the animal and crossings from one compartment to the other were detected by two photocells placed on either side of the dividing wall. Upon presentation of the conditioned stimuli (CS), tone and light, the animals have 10 s to cross to the other compartment of the shuttle-box in order to turn the CS off (end the trial) and avoid the appearance of the unconditioned stimulus (UCS). If the rat remained in the same compartment for more than 10 s, the UCS is presented as 0.5 mA scrambled foot-shocks until escape was performed or 10 s in maximal duration. The following behavioural variables were evaluated: avoidance (response to CS within 10 s); escape (reponse to CS+UCS); escape failures (failure to respond); intertrial crosses and locomotor activity. The rats were habituated to the shuttle-box 3 min before each test session. During training each test session consists of 30 trials with intertrial intervals varying randomly between 20 s and 30 s. Training was carried until the rats display an avoidance of 80% or more, on 3 consecutive days. […]
# Statistical analyses. The effects of compounds on avoidance and escape failure behaviours were statistically evaluated by means of a two-way repeated measures ANOVA followed by post hoc comparisons (Student-Newman-Keuls Method) when appropriate. […]
# DA neurons in the VTA = test: Electrophysiology: spontaneous DA cell firing in the VTA of anaesthetised rats; format: in vivo, rat; conditions: mean ± SEM
# Description: Subjects. Male Wistar rats (Harlan, The Netherlands) weighing 270-340 g were used. The animals were housed under a 12-hr light/dark cycle under controlled conditions for regular in-door temperature (21±2° C.) and humidity (55±5%) with food and tap water available ad libitum.
# Experimental procedure. The rats were anaesthetised with an intraperitoneal injection of chloral hydrate (400 mg/kg). A femoral vein catheter was then inserted for supplementary anaesthetic injections (100 mg/kg) and drug administration. Animals were then mounted in a stereotaxic frame, the skull was exposed, and a hole (0.5×0.5 cm) was drilled above the ventral tegmental area. Extracellular single-cell recordings were performed using electrodes pulled from glass capillaries and filled with 2% Pontamine Sky Blue in 2 M NaCl. The tip of the electrode was broken under microscopic control, yielding an impedance of 2.0-8.0 MΩ a 135 Hz. The electrode was then lowered into the brain, using a hydraulic microdrive, aimed at the following coordinates: 5.5-5.0 mm posterior to Bregma; 0.5-0.9 mm lateral to the midline. Extracellular action potentials were amplified, discriminated and monitored on an oscilloscope and an audiomonitor. Discriminated spikes were collected and analysed using Spike 2 software (Cambridge Electronic Design Ltd., Cambridge, UK) on a PC-based system connected to a CED 1401 interface unit (Cambridge Electronic Design Ltd.). Presumed dopaminergic neurons were typically found 7.0-8.5 mm beneath the brain surface and were characterised by (1) a slow and irregular firing pattern (0.5-10 Hz), and (2) triphasic action potentials with a predominant positive component, a negative component followed by a minor positive component, with an overall duration >2.5 ms (Bunney et al. 1973, J. Pharmacol. Exp. They., 185, 560-571.).
# Administration of compounds. Once a stable basal firing rate was obtained, cumulated doses of N-(2,6-Dimethyl-4-morpholin-4-yl-phenyl)-3,3-dimethyl-butyramide ([…]; volume range 0.12-1.0 ml/kg) were administered i.v., each injection being separated by at least 3 min. These i.v. doses match the s.c. dose range of 0-10 mg/kg.
# Statistical analysis. Drug effects were assessed by statistical comparison of the mean firing rate calculated from the 2-3 min period immediately before the first drug administration (baseline) to the mean firing rate calculated from at least 60 s at the maximal drug effect. Data were analysed statistically by a one-way ANOVA followed by Student-Newman-Keuls posthoc test. A p-value less than 0.05 was considered significant.
compound,measurement,setting,value
"Cc1cc(N2CCOCC2)cc(C)c1NC(=O)CC(C)(C)C [N-(2,6-dimethyl-4-morpholin-4-yl-phenyl)-3,3-dimethyl-butyramide]",% inhibition of avoidance (Std. dev.) Relative to baseline,Male Wistar rats; 2.5 mg/kg s.c. 30 min before the test,1 (14) %
same,% inhibition of avoidance (Std. dev.) Relative to baseline,Male Wistar rats; 5 mg/kg s.c. 30 min before the test,71%
same,Escape failures (effect on motor performance),"Male Wistar rats; 2.5 and 5 mg/kg s.c., data not shown",None of the tested doses caused any incidences of escape failures
same,Spontaneous DA cell firing rate as a percentage of baseline firing rate,DA neurons in the VTA; cumulated dose 0.03 mg/kg i.v.,89.8 ± 4.5 (5) percentage of baseline firing rate
same,Spontaneous DA cell firing rate as a percentage of baseline firing rate,DA neurons in the VTA; cumulated dose 0.1 mg/kg i.v.,81.0 ± 4.0 (5) percentage of baseline firing rate
same,Spontaneous DA cell firing rate as a percentage of baseline firing rate,DA neurons in the VTA; cumulated dose 0.25 mg/kg i.v.,74.1 ± 6.3 (4) percentage of baseline firing rate
same,Spontaneous DA cell firing rate as a percentage of baseline firing rate,DA neurons in the VTA; cumulated dose 0.5 mg/kg i.v.,68.1 ± 6.0 (4) percentage of baseline firing rate
same,Spontaneous DA cell firing rate as a percentage of baseline firing rate,DA neurons in the VTA; cumulated dose 1.0 mg/kg i.v.,57.1 ± 7.9 (3) percentage of baseline firing rate
